Measurements published in patent EP1285920A1, “C10 Ester sustituted taxanes as antitumor agents” (Florida State University Research Foundation, Inc., priority 2001, dated 2003).

tested on: HCT116; assay: In Vitro cytotoxicity measured by the cell colony formation assay; format: cell-based, human; details: HCT116 colony formation; 72 h with drug, colonies counted after 7 days; ID50 = concentration producing 50% inhibition of colony formation; read-out: IN VITRO ID 50 HCT116
Description: Four hundred cells (HCT116) were plated in 60 mm Petri dishes containing 2.7 mL of medium (modified McCoy's 5a medium containing 10% fetal bovine serum and 100 units/mL penicillin and […] streptomycin). The cells were incubated in a CO2 incubator at 37 °C for 5 h for attachment to the bottom of Petri dishes. The compounds identified in Example 2 were made up fresh in medium at ten times the final concentration, and then 0.3 mL of this stock solution was added to the 2.7 mL of medium in the dish. The cells were then incubated with drugs for 72 h at 37 °C. At the end of incubation the drug-containing media were decanted, the dishes were rinsed with 4 mL of Hank's Balance Salt Solution (HBSS), 5 mL of fresh medium was added, and the dishes were returned to the incubator for colony formation. The cell colonies were counted using a colony counter after incubation for 7 days.

Question: `CC=CC(=O)OC1C(=O)C2(C)C(O)CC3OCC3(OC(C)=O)C2C(OC(=O)c2ccccc2)C2(O)CC(OC(=O)C(O)C(NC(=O)OC(C)(C)C)c3ccccn3)C(C)=C1C2(C)C` (stereo not drawn) [Compound 2348] was tested. Which IC50 did it give?
Answer: The IC50 was less than 1 nM.

Question: With `CC=CC(=O)OC1C(=O)C2(C)C(O)CC3OCC3(OC(C)=O)C2C(OC(=O)c2ccccc2)C2(O)CC(OC(=O)C(O)C(NC(=O)OC(C)(C)C)c3cccnc3)C(C)=C1C2(C)C` (stereo not drawn) [Compound 2353] as the molecule, how does the IC50 read?
Answer: The IC50 was less than 10 nM.

Question: With `CC=CC(=O)OC1C(=O)C2(C)C(O)CC3OCC3(OC(C)=O)C2C(OC(=O)c2ccccc2)C2(O)CC(OC(=O)C(O)C(NC(=O)OC(C)(C)C)c3ccncc3)C(C)=C1C2(C)C` (stereo not drawn) [Compound 2366] as the molecule, how does the IC50 read?
Answer: The IC50 was less than 1 nM.

Question: For `CC=CC(=O)OC1C(=O)C2(C)C(O)CC3OCC3(OC(C)=O)C2C(OC(=O)c2ccccc2)C2(O)CC(OC(=O)C(O)C(NC(=O)OC(C)(C)C)c3ccco3)C(C)=C1C2(C)C` (stereo not drawn) [Compound 2379], which IC50 is on record?
Answer: The IC50 was less than 1 nM.

Question: With `CC=CC(=O)OC1C(=O)C2(C)C(O)CC3OCC3(OC(C)=O)C2C(OC(=O)c2ccccc2)C2(O)CC(OC(=O)C(O)C(NC(=O)OC(C)(C)C)c3ccoc3)C(C)=C1C2(C)C` (stereo not drawn) [Compound 2380] as the molecule, how does the IC50 read?
Answer: Its IC50 is less than 1 nM.

Question: With `CC=CC(=O)OC1C(=O)C2(C)C(O)CC3OCC3(OC(C)=O)C2C(OC(=O)c2ccccc2)C2(O)CC(OC(=O)C(O)C(NC(=O)OC(C)(C)C)C(C)C)C(C)=C1C2(C)C` (stereo not drawn) [Compound 2413] as the molecule, how does the IC50 read?
Answer: Its IC50 is less than 10 nM.

Question: For `CC=CC(=O)OC1C(=O)C2(C)C(O)CC3OCC3(OC(C)=O)C2C(OC(=O)c2ccccc2)C2(O)CC(OC(=O)C(O)C(NC(=O)OC(C)(C)C)C3CCC3)C(C)=C1C2(C)C` (stereo not drawn) [Compound 2424], which IC50 is on record?
Answer: Its IC50 is less than 10 nM.

Question: With `CC=CC(=O)OC1C(=O)C2(C)C(O)CC3OCC3(OC(C)=O)C2C(OC(=O)c2ccccc2)C2(O)CC(OC(=O)C(O)C(NC(=O)OC(C)(C)C)c3ccc([N+](=O)[O-])cc3)C(C)=C1C2(C)C` (stereo not drawn) [Compound 2439] as the molecule, how does the IC50 read?
Answer: Its IC50 is less than 10 nM.

same assay, conditions: Homo sapiens, HCT-116; read-out: IN VITRO ID 50 HCT116

Question: `CC(=O)O[C@@]12CO[C@@H]1C[C@H](O)[C@@]1(C)C(=O)[C@H](OC(=O)C=C(C)C)C3=C(C)[C@@H](OC(=O)[C@H](O)[C@H](C=C(C)C)NC(=O)OC(C)(C)C)C[C@@](O)([C@@H](OC(=O)c4ccccc4)[C@H]21)C3(C)C` [Compound 2455] was tested. Which IC50 did it give?
Answer: Its IC50 is less than 10 nM.

Question: With `CC(=O)O[C@@]12CO[C@@H]1C[C@H](O)[C@@]1(C)C(=O)[C@H](OC(=O)C=C(C)C)C3=C(C)[C@@H](OC(=O)[C@H](O)[C@@H](NC(=O)OC(C)(C)C)c4ccccn4)C[C@@](O)([C@@H](OC(=O)c4ccccc4)[C@H]21)C3(C)C` [Compound 2464] as the molecule, how does the IC50 read?
Answer: Its IC50 is less than 1 nM.

Question: With `CC(=O)O[C@@]12CO[C@@H]1C[C@H](O)[C@@]1(C)C(=O)[C@H](OC(=O)C=C(C)C)C3=C(C)[C@@H](OC(=O)[C@H](O)[C@@H](NC(=O)OC(C)(C)C)c4ccncc4)C[C@@](O)([C@@H](OC(=O)c4ccccc4)[C@H]21)C3(C)C` [Compound 2472] as the molecule, how does the IC50 read?
Answer: The IC50 was less than 1 nM.

Question: For `CC(=O)O[C@@]12CO[C@@H]1C[C@H](O)[C@@]1(C)C(=O)[C@H](OC(=O)C=C(C)C)C3=C(C)[C@@H](OC(=O)[C@H](O)[C@@H](NC(=O)OC(C)(C)C)c4ccco4)C[C@@](O)([C@@H](OC(=O)c4ccccc4)[C@H]21)C3(C)C` [Compound 2488], which IC50 is on record?
Answer: The IC50 was less than 1 nM.

Question: How did the IC50 turn out when `CC(=O)O[C@@]12CO[C@@H]1C[C@H](O)[C@@]1(C)C(=O)[C@H](OC(=O)C=C(C)C)C3=C(C)[C@@H](OC(=O)[C@H](O)[C@@H](NC(=O)OC(C)(C)C)c4ccoc4)C[C@@](O)([C@@H](OC(=O)c4ccccc4)[C@H]21)C3(C)C` [Compound 2499] was run?
Answer: The IC50 was less than 1 nM.

Question: `CC(=O)O[C@@]12CO[C@@H]1C[C@H](O)[C@@]1(C)C(=O)[C@H](OC(=O)C=C(C)C)C3=C(C)[C@@H](OC(=O)[C@H](O)[C@@H](NC(=O)OC(C)(C)C)c4cccs4)C[C@@](O)([C@@H](OC(=O)c4ccccc4)[C@H]21)C3(C)C` [Compound 2503] was tested. Which IC50 did it give?
Answer: The IC50 was less than 1 nM.

Question: With `CC(=O)O[C@@]12CO[C@@H]1C[C@H](O)[C@@]1(C)C(=O)[C@H](OC(=O)C=C(C)C)C3=C(C)[C@@H](OC(=O)[C@H](O)[C@@H](NC(=O)OC(C)(C)C)c4ccsc4)C[C@@](O)([C@@H](OC(=O)c4ccccc4)[C@H]21)C3(C)C` [Compound 2511] as the molecule, how does the IC50 read?
Answer: The IC50 was less than 1 nM.
